Entries after “also recorded” stand apart in the source; their conditions may differ.
Tests used:
Calf Thymus DNA = assay: UV-Visible spectrophotometric titration; format: binding; settings: PND 22.8 μM, Tris/HCl buffer, CT DNA additions
Description: UV-Visible measurements were taken in a Varian Cary 100 spectrophotometer. Calf Thymus (CT) DNA and buffers were purchased from Sigma Aldrich. The binding constant of PND with CT DNA was determined by absorption titration at room temperature through stepwise addition of a CT DNA solution (10.1 mM; 5 μL additions) in buffer (5 mM Tris/HCl, 50 mM NaCl, pH=7.39) over a 2 mL working solution of PND (22.8 μM) in the same buffer. Absorption spectra were recorded at 424 nm and the titration was terminated when saturation was reached. In order to determine the binding affinity, the data was fitted to the Scatchard equation r/Cf=K(n−r) (McGhee and von Hippel plots), where r is the number of moles of PND bound to 1 mol of CT DNA, n is the number of equivalent binding sites, and K is the affinity of the complex for those binding sites. Concentrations of free (Cf) and bound (Cb) complexes were calculated from Cf=C(1−α) and Cb=C−Cf, respectively, where C is the total PND concentration. The fraction of the bound complex (α) was calculated from α=(Af−A)/(Af−Ab), where Af and Ab are the absorbances of the free and fully bound drug at the selected wavelengths, and A is the absorbance at any given point during the titration. The plot of r/Cf vs. r gives the binding constant Kb as the slope of the graph. All experiments were performed in triplicate and values of Kb were averaged.

[1] = system: plasmid dsDNA (pCMV-dR8.91); assay: DNA mobility-shift assay (agarose gel); format: binding; design: DNA mobility shift: unit of the concentration uncertain; settings: for DNA mobility shift: 100 ng plasmid DNA
Description: Typically, an experimental compound intercalating or binding to double stranded (ds) DNA will increase the molecular mass resulting from forming complexes, decreasing its electrophoretic mobility in an agarose gel, as compared with untreated dsDNA. To explore the potential interaction between PND and dsDNA, a DNA mobility-shift assay was conducted. Each reaction mixture was of 10 μl total volume in PBS pH 7.4. Both PND (Sigma-Aldrich) and quinacrine (Sigma-Aldrich) were tested with three individual concentrations of 1 μM, 0.5 μM or 0.25 μM, respectively. To each reaction mixture, 100 ng of plasmid dsDNA (pCMV-dR8.91; Addgene, Cambridge, MA) was added and the mixture was then incubated for 30 min at 37° C. and stopped by adding 2 μl of 6× gel loading buffer and placed on ice. The potential binding interaction between both PND and quinacrine with dsDNA were analyzed by using 1% (w/v) agarose-gel electrophoresis dissolved in TAE buffer (0.04 M Tris base, 0.04 M acetate and 0.001 M EDTA) pH 8.0. To stain the dsDNA complexes, Ethidium bromide was added to the agarose gel throughout the electrophoresis process at a concentration of 0.5 μg/ml. DNA migration was visualized by utilizing a gel documentation system and pictures were captured by using a UV-light transilluminator (Alpha Innotech, San Leandro, CA). The well-known DNA intercalator fluorescent compound, propidium iodide (PI), was included as positive controls at 1 μg per reaction. As a control, untreated plasmid DNA was included to determine its normal electrophoretic mobility in the gel.

topoisomerase II = molecular target: T1, topoisomerase II (Homo sapiens, UniProt P11388); assay: TopoGen Topoisomerase II Assay Kit (kDNA decatenation); format: biochemical; settings: kDNA plus topoisomerase II; 5, 50, 500 μM PND
T1 construct: purchased TopoGen
Excerpt: FIG. 3. Transcriptome analyses of possible pathways activated by pyronaridine (PND) and target validation. […] Pearson correlation analysis of the transcriptional signature of PND compared to the signatures deposited in LINCS project. Compounds marked correlate with the effects of PND, wherein darker the fill, the better the correlation. […] Lane 1, catenated kinetoplast DNA (kDNA); Lane 2, decatenated kDNA; Lane 3, linear kDNA; Lane 4, kDNA plus topoisomerase II; Lane 5, kDNA plus topoisomerase plus 5 μM of PND; Lane 6, kDNA plus topoisomerase plus 50 μM of PND; Lane 7, kDNA plus topoisomerase plus 500 μM of PND; Lane 8, kDNA plus topoisomerase II plus 1 mM etoposoide (Topo II inhibitor); Lane 9, kDNA plus topoisomerase ii plus PBS; 10, kDNA plus topoisomerase II plus DMSO.
In order to explore the possible Mechanism of Action (MoA) of PND, the transcriptome results for each cell line obtained were compared with the gene-expression data from the LINCS project (http://www.lincsproject.org), that contains the gene-expression profiles from various human cells treated with FDA-approved and withdrawn compounds as well as different well-characterized chemical reagents. It was reasoned that the expression profile of each lead compound should also induce a cellular gene expression response consistent with a known MoA of drugs deposited in LINCS. […]

[2] = system: MDA-MB-231 LM2-LUC4 metastatic breast cancer cells; assay: Metastatic breast cancer tumours in mice, daily gavage; format: in vivo
Description: Treatment began when tumors reached 150-300 mm^3 in size (i.e. Day 1).
In the PND-treated group (n=6), all 6 mice were given 160 mg/kg from Day 1 to Day 9. PND-treated mice numbers 2, 4, and 5 received 160 mg/kg for the entire study, while PND-treated mice numbers 1, 3, and 6 had the largest tumors in the group on Day 9, and had their doses increased on Day 10 to 240 mg/kg, and again on Day 13 to 320 mg/kg. The control mice (n=6) were given placebo throughout the study. The size of each tumor was measured daily. The protocol's endpoint was when a tumor reached 1500 mm^3 in size, triggering the euthanization of the mouse. For the analysis, the level of significance was set at P<0.05.

T1 sequence (P11388 whole entry): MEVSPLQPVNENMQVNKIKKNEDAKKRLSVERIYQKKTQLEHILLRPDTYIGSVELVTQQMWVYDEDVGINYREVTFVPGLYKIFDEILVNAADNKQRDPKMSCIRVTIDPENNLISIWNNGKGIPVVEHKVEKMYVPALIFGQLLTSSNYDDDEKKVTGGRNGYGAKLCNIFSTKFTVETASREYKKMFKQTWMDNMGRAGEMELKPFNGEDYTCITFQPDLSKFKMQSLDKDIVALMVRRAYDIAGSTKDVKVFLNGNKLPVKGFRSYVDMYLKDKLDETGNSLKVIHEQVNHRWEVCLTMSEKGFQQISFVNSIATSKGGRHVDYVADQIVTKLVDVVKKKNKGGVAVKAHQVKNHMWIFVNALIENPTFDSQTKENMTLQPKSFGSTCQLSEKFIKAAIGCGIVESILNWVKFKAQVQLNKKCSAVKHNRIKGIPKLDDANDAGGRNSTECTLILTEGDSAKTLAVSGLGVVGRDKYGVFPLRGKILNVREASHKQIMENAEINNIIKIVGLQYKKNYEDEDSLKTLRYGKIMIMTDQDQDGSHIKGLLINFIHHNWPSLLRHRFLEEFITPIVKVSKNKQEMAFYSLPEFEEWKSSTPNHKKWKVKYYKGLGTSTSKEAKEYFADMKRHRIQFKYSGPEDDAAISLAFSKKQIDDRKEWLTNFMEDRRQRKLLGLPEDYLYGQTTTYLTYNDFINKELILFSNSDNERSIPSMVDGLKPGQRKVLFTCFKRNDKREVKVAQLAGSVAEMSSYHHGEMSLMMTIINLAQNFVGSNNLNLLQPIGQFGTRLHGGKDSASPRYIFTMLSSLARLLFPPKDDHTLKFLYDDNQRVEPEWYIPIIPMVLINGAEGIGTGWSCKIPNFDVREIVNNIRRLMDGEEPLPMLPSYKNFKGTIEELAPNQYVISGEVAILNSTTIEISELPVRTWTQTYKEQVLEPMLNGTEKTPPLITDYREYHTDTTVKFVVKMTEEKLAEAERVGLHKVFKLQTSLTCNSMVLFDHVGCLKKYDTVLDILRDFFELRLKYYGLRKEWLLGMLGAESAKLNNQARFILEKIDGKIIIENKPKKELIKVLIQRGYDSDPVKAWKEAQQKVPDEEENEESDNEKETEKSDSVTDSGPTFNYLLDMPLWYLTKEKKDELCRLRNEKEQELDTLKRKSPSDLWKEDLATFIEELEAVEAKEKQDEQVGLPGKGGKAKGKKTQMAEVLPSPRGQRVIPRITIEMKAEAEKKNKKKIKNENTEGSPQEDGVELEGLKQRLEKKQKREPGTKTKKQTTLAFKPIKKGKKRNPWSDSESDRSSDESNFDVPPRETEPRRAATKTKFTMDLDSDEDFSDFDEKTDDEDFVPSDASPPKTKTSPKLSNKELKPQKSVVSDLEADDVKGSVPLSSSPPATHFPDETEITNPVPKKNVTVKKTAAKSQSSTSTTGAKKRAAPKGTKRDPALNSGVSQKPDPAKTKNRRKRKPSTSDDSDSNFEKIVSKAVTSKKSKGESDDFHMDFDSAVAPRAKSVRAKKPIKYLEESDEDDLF

`COC1=CC=C2Nc3cc(Cl)ccc3C(N=C3C=C(CN4CCCC4)C(=O)C(CN4CCCC4)=C3)=C2N1` [PND, 4-[(7-chloro-2-methoxy-1,5-dihydrobenzo[b][1,5]naphthyridin-10-yl)imino]-2,6-bis(pyrrolidin-1-ylmethyl)cyclohexa-2,5-dien-1-one] was tested, and the “hypochromic effect at 424 nm” value (Calf Thymus DNA) was 39%, the “red-shift of absorbance maximum at 424 nm” value (Calf Thymus DNA) was 8 nm and the DNA mobility shift ([1]; 0.5 and 0.25 mM) was “clear reduction in mobility”. The DNA mobility shift ([1]; 1 (unit uncertain), 30 min 37° C.) was “marked reduction of migration”, the DNA degradation ([1]; fragments smaller than free supercoiled DNA) was “did not result in DNA degradation” and the “inhibition of topoisomerase II activity” value (topoisomerase II) was “activity of PND as a Topoisomerase inhibitor was confirmed; also recorded: inhibition of the topoisomerase II activity in a dose-dependent manner”. The average tumor size ([2]; 160 mg/kg daily gavage, Day 1 to 9, control 750 mm^3, P 0.01) was 430 mm^3, the “PND accumulation on dissection (stomach, intestines, liver)” value ([2]; 6 PND-treated mice dissected) was “no sign of PND accumulation” and the adverse events ([2]; 160-320 mg/kg daily gavage) was “no reports of negative adverse events except discomfort in walking after Day 15”. For the same molecule, the “length of survival versus placebo” value ([2]; 160-320 mg/kg daily gavage) was “significant difference in lengths of survival favoring the PND-treated group”, the “weight, eating, grooming” value ([2]; 160-320 mg/kg daily gavage) was “no weight loss, no eating disorders, or grooming issues” and the “tumor size versus placebo” value ([2]; Day 1 to 15, P 0.0001) was “tumors had grown larger in the placebo group than in the PND-treated group”. For the same molecule, the “pigmentation at about Day 20” value ([2]; all 6 PND-treated mice) was “yellowing in the eyes, skin, ears, and paws”.
